Data published in paper PMC4703063, “Dual functionality of O-GlcNAc transferase is required for Drosophila development” (Open Biology, 2015).

Tests used:
[1] = target: T1, Δ1–352 DmOGT (Drosophila melanogaster, UniProt Q7KJA9, K872M); assay: X-ray crystallography (co-crystal, […] Å); type: binding; conditions: 3 mM UDP-5S-GlcNAc; pH 7.5 protein buffer; 21 °C
T1 construct: gene sxc; N-terminally truncated construct starting at residue 353 in TPR 10 (part of TPRs plus catalytic domain); expressed in E. coli (ArcticExpress), purified as hOGT Δ1-312; wild type in kinetics, K872M in crystal
T1 sequence (Q7KJA9 353-1059 K872M): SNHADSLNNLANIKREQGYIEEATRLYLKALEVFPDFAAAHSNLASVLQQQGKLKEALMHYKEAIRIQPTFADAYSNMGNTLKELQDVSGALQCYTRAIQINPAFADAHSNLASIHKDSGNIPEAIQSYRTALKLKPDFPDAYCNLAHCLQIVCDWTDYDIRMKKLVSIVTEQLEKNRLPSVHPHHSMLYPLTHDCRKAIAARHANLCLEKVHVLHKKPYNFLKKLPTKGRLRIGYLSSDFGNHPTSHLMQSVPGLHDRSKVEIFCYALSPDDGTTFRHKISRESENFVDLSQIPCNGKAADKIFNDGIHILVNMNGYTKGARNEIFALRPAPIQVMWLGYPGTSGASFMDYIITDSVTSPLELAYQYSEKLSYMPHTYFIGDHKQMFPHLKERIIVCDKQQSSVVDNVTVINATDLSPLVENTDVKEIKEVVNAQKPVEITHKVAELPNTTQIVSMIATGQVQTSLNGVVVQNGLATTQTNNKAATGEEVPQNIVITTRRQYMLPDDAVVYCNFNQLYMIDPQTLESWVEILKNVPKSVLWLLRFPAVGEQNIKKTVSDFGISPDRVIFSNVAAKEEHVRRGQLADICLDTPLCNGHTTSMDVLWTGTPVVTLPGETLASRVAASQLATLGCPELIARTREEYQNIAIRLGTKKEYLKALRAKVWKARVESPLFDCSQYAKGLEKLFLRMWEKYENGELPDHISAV

[2] = target: T2, Δ1–352 DmOGT (Drosophila melanogaster, UniProt Q7KJA9); assay: radiometric transfer assay on RBL2 peptide, Ki from IC50 by Cheng-Prusoff; type: biochemical
T2 construct: gene sxc; N-terminally truncated construct starting at residue 353 in TPR 10 (part of TPRs plus catalytic domain); expressed in E. coli (ArcticExpress), purified as hOGT Δ1-312; wild type in kinetics, K872M in crystal
T2 sequence (Q7KJA9 353-1059): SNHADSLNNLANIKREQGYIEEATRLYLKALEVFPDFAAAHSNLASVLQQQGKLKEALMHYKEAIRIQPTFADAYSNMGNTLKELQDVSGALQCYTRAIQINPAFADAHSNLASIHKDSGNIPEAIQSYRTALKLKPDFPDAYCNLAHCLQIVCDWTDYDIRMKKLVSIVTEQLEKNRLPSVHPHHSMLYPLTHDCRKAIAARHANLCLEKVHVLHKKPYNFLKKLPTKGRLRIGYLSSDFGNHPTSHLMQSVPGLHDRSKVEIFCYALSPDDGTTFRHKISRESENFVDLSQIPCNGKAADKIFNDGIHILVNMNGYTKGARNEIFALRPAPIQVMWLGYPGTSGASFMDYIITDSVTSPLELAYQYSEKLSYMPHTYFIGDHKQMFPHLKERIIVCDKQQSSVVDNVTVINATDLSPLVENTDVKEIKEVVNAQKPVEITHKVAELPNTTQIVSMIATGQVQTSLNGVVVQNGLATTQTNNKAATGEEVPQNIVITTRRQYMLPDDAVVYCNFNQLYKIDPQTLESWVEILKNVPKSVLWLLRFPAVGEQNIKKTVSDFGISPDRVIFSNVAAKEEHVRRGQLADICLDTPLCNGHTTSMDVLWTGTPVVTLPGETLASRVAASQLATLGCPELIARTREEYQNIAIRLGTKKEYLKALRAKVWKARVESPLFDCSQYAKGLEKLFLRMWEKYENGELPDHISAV

[3] = target: T3, Δ1–312 hOGT (Homo sapiens, UniProt O15294); assay: as above; type: biochemical
T3 construct: gene OGT; N-terminally truncated, residues 1-312 removed (printed once as Δ1-313 beside the Ki); part of TPRs plus catalytic domain; recombinant
T3 sequence (O15294 323-1041): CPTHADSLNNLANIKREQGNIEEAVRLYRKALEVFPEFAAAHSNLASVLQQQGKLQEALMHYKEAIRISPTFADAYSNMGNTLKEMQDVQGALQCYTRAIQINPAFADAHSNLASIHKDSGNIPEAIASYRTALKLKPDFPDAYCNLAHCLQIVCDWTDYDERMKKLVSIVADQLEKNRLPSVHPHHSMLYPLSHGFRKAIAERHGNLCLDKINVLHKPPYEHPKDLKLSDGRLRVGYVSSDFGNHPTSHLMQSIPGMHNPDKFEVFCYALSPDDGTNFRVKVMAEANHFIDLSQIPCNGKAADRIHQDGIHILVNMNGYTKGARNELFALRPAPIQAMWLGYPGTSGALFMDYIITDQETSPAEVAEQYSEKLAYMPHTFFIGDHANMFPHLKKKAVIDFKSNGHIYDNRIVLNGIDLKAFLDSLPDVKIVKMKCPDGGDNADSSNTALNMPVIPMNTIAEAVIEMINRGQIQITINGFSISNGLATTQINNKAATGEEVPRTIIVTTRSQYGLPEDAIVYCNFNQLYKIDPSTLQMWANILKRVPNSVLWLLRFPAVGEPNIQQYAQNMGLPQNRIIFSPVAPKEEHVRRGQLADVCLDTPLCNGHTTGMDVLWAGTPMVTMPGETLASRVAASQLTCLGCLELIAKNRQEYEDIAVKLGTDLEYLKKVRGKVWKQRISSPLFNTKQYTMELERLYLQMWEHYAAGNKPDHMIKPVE

[4] = target: T3, Δ1–312 hOGT; assay: radiometric transfer assay on RBL2 peptide, three-parameter dose-response fit; type: biochemical
[5] = target: T2, Δ1–352 DmOGT; assay: as above; type: biochemical
[6] = substrate: CC(=O)N[C@H]1[C@@H](OP(=O)(O)OP(=O)(O)OC[C@H]2O[C@@H](n3ccc(=O)[nH]c3=O)[C@H](O)[C@@H]2O)O[C@H](CO)[C@@H](O)[C@@H]1O; assay: radiometric transfer assay on RBL2 peptide, Michaelis-Menten fit; type: biochemical, Homo sapiens; conditions: 0.25 mM RBL2 peptide …, UDP-[3H]-GlcNAc tracer, pH 7.5
[7] = substrate: CC(=O)N[C@H]1[C@@H](OP(=O)(O)OP(=O)(O)OC[C@H]2O[C@@H](n3ccc(=O)[nH]c3=O)[C@H](O)[C@@H]2O)O[C@H](CO)[C@@H](O)[C@@H]1O; assay: as above; type: biochemical, Drosophila melanogaster; conditions: 0.25 mM RBL2 peptide …, UDP-[3H]-GlcNAc tracer, pH 7.5

**Q.** What does the source list for `CC(=O)N[C@@H]1[C@@H](O)[C@H](O)[C@@H](CO)S[C@@H]1OP(=O)(O)OP(=O)(O)OC[C@H]1O[C@@H](n2ccc(=O)[nH]c2=O)[C@H](O)[C@@H]1O` [UDP-5S-GlcNAc]?
**A.** X-ray crystallography (co-crystal, 2.7 Å) [1]: crystallized in complex with the inhibitor/substrate analogue UDP-5S-GlcNAc; Ki [2]: 36.2 µM; Ki [3]: 13.6 µM; IC50 [4]: 24.6 µM; IC50 [5]: 68.3 µM

B1: Δ1–312 hOGT (Homo sapiens) (protein)
chain: CPTHADSLNNLANIKREQGNIEEAVRLYRKALEVFPEFAAAHSNLASVLQQQGKLQEALMHYKEAIRISPTFADAYSNMGNTLKEMQDVQGALQCYTRAIQINPAFADAHSNLASIHKDSGNIPEAIASYRTALKLKPDFPDAYCNLAHCLQIVCDWTDYDERMKKLVSIVADQLEKNRLPSVHPHHSMLYPLSHGFRKAIAERHGNLCLDKINVLHKPPYEHPKDLKLSDGRLRVGYVSSDFGNHPTSHLMQSIPGMHNPDKFEVFCYALSPDDGTNFRVKVMAEANHFIDLSQIPCNGKAADRIHQDGIHILVNMNGYTKGARNELFALRPAPIQAMWLGYPGTSGALFMDYIITDQETSPAEVAEQYSEKLAYMPHTFFIGDHANMFPHLKKKAVIDFKSNGHIYDNRIVLNGIDLKAFLDSLPDVKIVKMKCPDGGDNADSSNTALNMPVIPMNTIAEAVIEMINRGQIQITINGFSISNGLATTQINNKAATGEEVPRTIIVTTRSQYGLPEDAIVYCNFNQLYKIDPSTLQMWANILKRVPNSVLWLLRFPAVGEPNIQQYAQNMGLPQNRIIFSPVAPKEEHVRRGQLADVCLDTPLCNGHTTGMDVLWAGTPMVTMPGETLASRVAASQLTCLGCLELIAKNRQEYEDIAVKLGTDLEYLKKVRGKVWKQRISSPLFNTKQYTMELERLYLQMWEHYAAGNKPDHMIKPVE
notes: N-terminally truncated, residues 1-312 removed (printed once as Δ1-313 beside the Ki); part of TPRs plus catalytic domain; recombinant
**Q.** Which Km [6] does the source give for B1 here?
**A.** 6.6 ± 0.3 µM

B2: Δ1–352 DmOGT (Drosophila melanogaster) (protein)
chain: SNHADSLNNLANIKREQGYIEEATRLYLKALEVFPDFAAAHSNLASVLQQQGKLKEALMHYKEAIRIQPTFADAYSNMGNTLKELQDVSGALQCYTRAIQINPAFADAHSNLASIHKDSGNIPEAIQSYRTALKLKPDFPDAYCNLAHCLQIVCDWTDYDIRMKKLVSIVTEQLEKNRLPSVHPHHSMLYPLTHDCRKAIAARHANLCLEKVHVLHKKPYNFLKKLPTKGRLRIGYLSSDFGNHPTSHLMQSVPGLHDRSKVEIFCYALSPDDGTTFRHKISRESENFVDLSQIPCNGKAADKIFNDGIHILVNMNGYTKGARNEIFALRPAPIQVMWLGYPGTSGASFMDYIITDSVTSPLELAYQYSEKLSYMPHTYFIGDHKQMFPHLKERIIVCDKQQSSVVDNVTVINATDLSPLVENTDVKEIKEVVNAQKPVEITHKVAELPNTTQIVSMIATGQVQTSLNGVVVQNGLATTQTNNKAATGEEVPQNIVITTRRQYMLPDDAVVYCNFNQLYKIDPQTLESWVEILKNVPKSVLWLLRFPAVGEQNIKKTVSDFGISPDRVIFSNVAAKEEHVRRGQLADICLDTPLCNGHTTSMDVLWTGTPVVTLPGETLASRVAASQLATLGCPELIARTREEYQNIAIRLGTKKEYLKALRAKVWKARVESPLFDCSQYAKGLEKLFLRMWEKYENGELPDHISAV
notes: N-terminally truncated construct starting at residue 353 in TPR 10 (part of TPRs plus catalytic domain); expressed in E. coli (ArcticExpress), purified as hOGT Δ1-312; wild type in kinetics, K872M in crystal
**Q.** How did the Km [7] turn out when B2 was run?
**A.** 17.8 ± 0.7 µM
